This passage reports GI50 and TGI results from PubChem BioAssay (NCI).

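The compound was tested at five concentrations on cells cultured in 96-well plates, with a 48-hour exposure period. GI50 marks 50% less growth. At the TGI there is no net growth.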

Test systems include IGROV1 ovarian; OVCAR-4 ovarian; OVCAR-3 ovarian; HS 578T breast; CAKI-1 renal; LOX IMVI melanoma; HCT-116 colon; A549 NSCLC; M19-MEL melanoma; DLD-1 colon.
Test in all cases: NCI-60 cell line screen, 48 h

As to `N#CSc1cc(-c2nc3ccccc3o2)ccc1N`, the GI50 with IGROV1 ovarian was 27.2 µM; with OVCAR-4 ovarian it was 30.5 µM; with OVCAR-3 ovarian it was 17.9 µM; with HS 578T breast, 11.3 µM; with CAKI-1 renal, 25.5 µM; in the assay on LOX IMVI melanoma, 13.5 µM. Further, the values for the GI50 in the assay on HCT-116 colon and with A549 NSCLC were 26.5 µM and 2.42 µM, respectively. The TGI with IGROV1 ovarian is more than 70.1 µM; with OVCAR-4 ovarian, more than 100 µM; in the assay with OVCAR-3 ovarian it was more than 56.7 µM; with HS 578T breast it was 63.6 µM; in the assay with CAKI-1 renal it was 61.9 µM; in the assay with LOX IMVI melanoma it was 43.9 µM. For the same molecule, the TGI with HCT-116 colon is more than 100 µM; in the assay on A549 NSCLC, more than 53 µM.
On to `Cc1nc(=O)n2c(c1C(=O)Nc1ccc(Cl)cc1)NCCC2`, for which the TGI with IGROV1 ovarian, with OVCAR-4 ovarian, in the assay with OVCAR-3 ovarian, with M19-MEL melanoma, with CAKI-1 renal and in the assay with LOX IMVI melanoma was more than 100 µM throughout. Also, the TGI in the assay on HCT-116 colon and with A549 NSCLC was more than 100 µM in each case.
As to `Nc1cc2ccncc2c2ccccc12`, the GI50 in the assay with IGROV1 ovarian was 11.9 µM; in the assay with OVCAR-4 ovarian it was 20.2 µM; in the assay on OVCAR-3 ovarian, 18.8 µM; in the assay with HS 578T breast it was 13.9 µM; in the assay on CAKI-1 renal, 18.4 µM; with LOX IMVI melanoma, 8.68 µM. In addition, the GI50 was 4.85 µM in the assay on HCT-116 colon and 18.9 µM in the assay on A549 NSCLC. Besides, the TGI was more than 100 µM in the assay with IGROV1 ovarian; more than 100 µM in the assay on OVCAR-4 ovarian; 76.5 µM in the assay on OVCAR-3 ovarian; 40.4 µM in the assay with HS 578T breast; more than 100 µM in the assay with CAKI-1 renal; more than 100 µM in the assay on LOX IMVI melanoma. In addition, the TGI in the assay on HCT-116 colon and with A549 NSCLC was more than 100 µM throughout.
Regarding `COc1ccc(C2C3=C(COC3=O)N(CCO)c3cc4c(cc32)CCC4)cc1OC` (stereo unspecified), the GI50 in the assay with IGROV1 ovarian was 0.274 µM; with OVCAR-4 ovarian, 0.901 µM; in the assay with OVCAR-3 ovarian it was 0.127 µM; in the assay on HS 578T breast, 0.454 µM; in the assay on CAKI-1 renal, 0.858 µM; in the assay with LOX IMVI melanoma, 1.53 µM. The GI50 with HCT-116 colon was 0.524 µM; with A549 NSCLC, 1.13 µM. Besides, the TGI in the assay on IGROV1 ovarian is more than 42.7 µM; in the assay on OVCAR-4 ovarian, more than 50 µM; in the assay on OVCAR-3 ovarian, 0.332 µM; in the assay on HS 578T breast it was more than 15 µM; in the assay on CAKI-1 renal, more than 50 µM; in the assay with LOX IMVI melanoma, more than 50 µM. Moreover, the TGI with HCT-116 colon and with A549 NSCLC was more than 50 µM throughout.
With `COc1cc2cc(Oc3ccc(NC(=O)Nc4cc(C(F)(F)F)cc(C(F)(F)F)c4)cc3)c(C)nc2cc1OCCN1CCCCC1`, the GI50 in the assay on IGROV1 ovarian was 1.35 µM; in the assay on OVCAR-4 ovarian, 1.89 µM; with OVCAR-3 ovarian, 1.64 µM; in the assay with HS 578T breast it was 1.93 µM; in the assay on CAKI-1 renal it was 1.42 µM; in the assay on LOX IMVI melanoma it was 1.71 µM. In addition, the values for the GI50 with HCT-116 colon and in the assay with A549 NSCLC were 1.75 µM and 1.8 µM, respectively. The TGI in the assay on IGROV1 ovarian turned out to be 2.79 µM; in the assay with OVCAR-4 ovarian it was 3.61 µM; in the assay with OVCAR-3 ovarian, 3.03 µM; in the assay on HS 578T breast, 4.67 µM; in the assay with CAKI-1 renal, 2.86 µM; in the assay on LOX IMVI melanoma, 3.17 µM. Moreover, the TGI with HCT-116 colon was 3.24 µM; with A549 NSCLC, 3.62 µM.
On to `CCc1cc(Nc2nccc(-c3c(-c4ccc(OC)c(C(=O)Nc5c(F)cccc5F)c4)nc4ccccn34)n2)c(OC)cc1N1CCC(N2CCN(S(C)(=O)=O)CC2)CC1`, for which the GI50 in the assay with IGROV1 ovarian, in the assay with OVCAR-4 ovarian, in the assay with OVCAR-3 ovarian, in the assay with HS 578T breast, in the assay with CAKI-1 renal and with LOX IMVI melanoma was more than 100 µM in each case. Besides, the results for the GI50 in the assay on HCT-116 colon and with A549 NSCLC were 88.8 µM and more than 48.3 µM, respectively. In addition, the TGI in the assay with IGROV1 ovarian, in the assay on OVCAR-4 ovarian, with OVCAR-3 ovarian, in the assay with HS 578T breast, in the assay with CAKI-1 renal and in the assay with LOX IMVI melanoma was more than 100 µM each time. Also, the TGI in the assay with HCT-116 colon and with A549 NSCLC was more than 100 µM in each case.
As to `CN(C)/C=C/C(=O)c1cccc(C(=O)/C=C/N(C)C)n1`, the TGI with IGROV1 ovarian, with OVCAR-4 ovarian, in the assay with OVCAR-3 ovarian, in the assay on M19-MEL melanoma, in the assay with DLD-1 colon and in the assay with LOX IMVI melanoma was more than 100 µM each time. The TGI in the assay on HCT-116 colon and in the assay with A549 NSCLC was more than 100 µM throughout.
In the case of `NC(=S)c1cn(C2OC(CO)C(O)C2O)c2ncnc(N)c12` (stereo unspecified), the GI50 in the assay with IGROV1 ovarian was 0.136 µM; in the assay with OVCAR-4 ovarian, 0.081 µM; in the assay with OVCAR-3 ovarian, 0.173 µM; in the assay with HS 578T breast, 0.254 µM; in the assay with CAKI-1 renal, 0.221 µM; in the assay on LOX IMVI melanoma, 0.139 µM. The GI50 with HCT-116 colon is 0.0876 µM; in the assay with A549 NSCLC, 0.266 µM. The TGI in the assay on IGROV1 ovarian stood at 0.586 µM; in the assay with OVCAR-4 ovarian it was 4.21 µM; in the assay on OVCAR-3 ovarian, 1.23 µM; with HS 578T breast, 2.54 µM; in the assay with CAKI-1 renal it was 2.22 µM; with LOX IMVI melanoma, 2.49 µM. Moreover, the results for the TGI in the assay on HCT-116 colon and in the assay with A549 NSCLC were more than 33.9 µM and more than 100 µM, respectively.
Consider `O=C(O)CSc1nnc(COc2ccccc2)n1-c1ccccc1`, for which the TGI in the assay with IGROV1 ovarian, in the assay on OVCAR-4 ovarian, in the assay on OVCAR-3 ovarian, in the assay with M19-MEL melanoma, in the assay on DLD-1 colon and in the assay with LOX IMVI melanoma was more than 100 µM throughout. In addition, the TGI in the assay on HCT-116 colon and in the assay with A549 NSCLC was more than 100 µM throughout.
For `CC[C@@]1(O)C(=O)N(CCN(C)C)Cc2c1cc1n(c2=O)Cc2cc3ccccc3nc2-1`, the GI50 is 26 µM in the assay on IGROV1 ovarian; 58.1 µM with OVCAR-4 ovarian; more than 100 µM in the assay with OVCAR-3 ovarian; more than 100 µM in the assay with HS 578T breast; 4.27 µM in the assay with CAKI-1 renal; 6.19 µM in the assay on LOX IMVI melanoma. Further, the GI50 was 12.4 µM with HCT-116 colon and 26 µM in the assay on A549 NSCLC. Further, the TGI with IGROV1 ovarian was more than 100 µM; in the assay with OVCAR-4 ovarian, more than 100 µM; in the assay with OVCAR-3 ovarian, more than 100 µM; with HS 578T breast it was more than 100 µM; in the assay with CAKI-1 renal, more than 100 µM; in the assay on LOX IMVI melanoma, more than 50.7 µM. The TGI with HCT-116 colon and with A549 NSCLC was more than 100 µM each time.
